The numbers were not newly measured in US10202400B2, “Cortistatin analogues and syntheses thereof” (President and Fellows of Harvard College, priority 2008, dated 2019), which cites them from elsewhere.

In brackets after ≈: the same amount, converted by molar mass.

The term GI50 denotes the concentration that inhibits growth by half.

Series [1] concerns human umbilical vein endothelial cells (HUVECs).
Series [2] concerns several human and murine cancer cell lines and one normal human dermal fibroblast cell line (KB3-1, Neuro2A, K562, NHDF).
In series [3] the test system is human nasopharynx carcinoma (KB) cells.

`CN(C)[C@H]1C[C@@]23CC[C@@]4(O2)C(=CC[C@]2(C)[C@@H](c5ccc6ccncc6c5)CC[C@H]24)C=C3[C@@H](O)[C@@H]1O` [Cortistatin A, cortistatin A]: the GI50 is 0.00018 µM in series [1] and 6 to 7 µM in series [2]. In addition, in the series on HUVECs, the “tubular formation in HUVECs” value is on record as “inhibits tubular formation”. For the same molecule, in the series on HUVEC, the HUVEC cellular migration entry is reported as “inhibits HUVEC cellular migration”.

For `CN[C@@H](C)[C@H]1CC[C@H]2[C@@H]3CC[C@@H]4C(=CC3=CC[C@]12C)CC[C@H](NC)C4(C)C` [buxenine G], the ED50 in series [3] is 0.4 µg/mL (≈ 1.08 µM).
